Source: patent US10987359B2, “Oxadiazepinone derivatives and methods of treating hepatitis B infections” (priority 2016, dated 2021)

test system: HBV; test: HBV replication inhibition assay (BDNA assay) in HepG2.2.15 cells; assay type: cell-based; conditions: Hepatitis B virus, HepG2.2.15, HBV replication assay (BDNA assay), HepG2.2.15 cells; read-out: DNA EC50
Procedure, shortened: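 HepG2.2.15 cells with stably integrated HBV were treated with serially diluted compounds at 0.5% DMSO for 6 days, with medium and compound refreshed at day 3. Encapsidated HBV DNA from DNase-treated supernatant was quantified by branched DNA assay. EC50 came from % inhibition versus DMSO, fitted non-linearly.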

Compound | EC50
CN1OC(CNS(=O)(=O)CC(F)(F)F)Cn2nc3c(c2C1=O)CN(C(=O)Nc1ccc(F)c(Cl)c1)CC3 (stereo not shown) [Compound 130, N-(3-chloro-4-fluorophenyl)-2-methyl-1-oxo-4-(((2,2,2-trifluoroethyl)sulfonamido)methyl)-1,4,5,8,9,11-hexahydropyrido[4′,3′:3,4]pyrazolo[5,1-d][1,2,5]oxadiazepine-10(2H)-carboxamide] | 1 to 100 nM
CN1OC(C(=O)N2CC(F)(F)C2)Cn2nc3c(c2C1=O)CN(C(=O)Nc1ccc(F)c(Cl)c1)CC3 (stereo not shown) [Compound 131, N-(3-chloro-4-fluorophenyl)-4-(3,3-difluoroazetidine-1-carbonyl)-2-methyl-1-oxo-1,4,5,8,9,11-hexahydropyrido[4′,3′:3,4]pyrazolo[5,1-d][1,2,5]oxadiazepine-10(2H)-carboxamide] | 1 to 100 nM
CN1OC(C(=O)N2CCC(F)(F)C2)Cn2nc3c(c2C1=O)CN(C(=O)Nc1ccc(F)c(Cl)c1)CC3 (stereo not shown) [Compound 132, N-(3-chloro-4-fluorophenyl)-4-(3,3-difluoropyrrolidine-1-carbonyl)-2-methyl-1-oxo-1,4,5,8,9,11-hexahydropyrido[4′,3′:3,4]pyrazolo[5,1-d][1,2,5]oxadiazepine-10(2H)-carboxamide] | 1 to 100 nM
CN(CC(F)(F)F)C(=O)C1Cn2nc3c(c2C(=O)N(C)O1)CN(C(=O)Nc1ccc(F)c(Cl)c1)CC3 (stereo not shown) [Compound 133, N10-(3-chloro-4-fluorophenyl)-N4,2-dimethyl-1-oxo-N4-(2,2,2-trifluoroethyl)-1,4,5,8,9,11-hexahydropyrido[4′,3′:3,4]pyrazolo[5,1-d][1,2,5]oxadiazepine-4,10(2H)-dicarboxamide] | 1 to 100 nM
CN(CC(F)F)C(=O)C1Cn2nc3c(c2C(=O)N(C)O1)CN(C(=O)Nc1ccc(F)c(Cl)c1)CC3 (stereo not shown) [Compound 134, N10-(3-chloro-4-fluorophenyl)-N4-(2,2-difluoroethyl)-N4,2-dimethyl-1-oxo-1,4,5,8,9,11-hexahydropyrido[4′,3′:3,4]pyrazolo[5,1-d][1,2,5]oxadiazepine-4,10(2H)-dicarboxamide] | 1 to 100 nM
CN1OC(C(=O)NCC(F)(F)F)Cn2nc3c(c2C1=O)CN(C(=O)Nc1ccc(F)c(Cl)c1)CC3 (stereo not shown) [Compound 135, N10-(3-chloro-4-fluorophenyl)-2-methyl-1-oxo-N4-(2,2,2-trifluoroethyl)-1,4,5,8,9,11-hexahydropyrido[4′,3′:3,4]pyrazolo[5,1-d][1,2,5]oxadiazepine-4,10(2H)-dicarboxamide] | 1 to 100 nM
CN1OC(C(=O)NCC(F)F)Cn2nc3c(c2C1=O)CN(C(=O)Nc1ccc(F)c(Cl)c1)CC3 (stereo not shown) [Compound 136, N10-(3-chloro-4-fluorophenyl)-N4-(2,2-difluoroethyl)-2-methyl-1-oxo-1,4,5,8,9,11-hexahydropyrido[4′,3′:3,4]pyrazolo[5,1-d][1,2,5]oxadiazepine-4,10(2H)-dicarboxamide] | 1 to 100 nM
CN(CC(F)F)C(=O)C1Cn2nc3c(c2C(=O)N(C)O1)CN(C(=O)Nc1ccc(F)c(Cl)c1F)CC3 (stereo not shown) [Compound 158, N10-(3-chloro-2,4-difluorophenyl)-N4-(2,2-difluoroethyl)-N4,2-dimethyl-1-oxo-1,4,5,8,9,11-hexahydropyrido[4′,3′:3,4]pyrazolo[5,1-d][1,2,5]oxadiazepine-4,10(2H)-dicarboxamide] | 1 to 100 nM
CN(CC(F)F)C(=O)C1Cn2nc3c(c2C(=O)N(C)O1)CN(C(=O)Nc1cc(Cl)c(F)cc1F)CC3 (stereo not shown) [Compound 159, N10-(5-chloro-2,4-difluorophenyl)-N4-(2,2-difluoroethyl)-N4,2-dimethyl-1-oxo-1,4,5,8,9,11-hexahydropyrido[4′,3′:3,4]pyrazolo[5,1-d][1,2,5]oxadiazepine-4,10(2H)-dicarboxamide] | 1 to 100 nM
CN(CC(F)F)C(=O)C1Cn2nc3c(c2C(=O)N(C)O1)CN(C(=O)Nc1ccc(F)c(C#N)c1)CC3 (stereo not shown) [Compound 160, N10-(3-cyano-4-fluorophenyl)-N4-(2,2-difluoroethyl)-N4,2-dimethyl-1-oxo-1,4,5,8,9,11-hexahydropyrido[4′,3′:3,4]pyrazolo[5,1-d][1,2,5]oxadiazepine-4,10(2H)-dicarboxamide] | 1 to 100 nM
CN(CC(F)F)C(=O)C1Cn2nc3c(c2C(=O)N(C)O1)CN(C(=O)Nc1ccc(F)c(C#N)c1F)CC3 (stereo not shown) [Compound 161, N10-(3-cyano-2,4-difluorophenyl)-N4-(2,2-difluoroethyl)-N4,2-dimethyl-1-oxo-1,4,5,8,9,11-hexahydropyrido[4′,3′:3,4]pyrazolo[5,1-d][1,2,5]oxadiazepine-4,10(2H)-dicarboxamide] | 1 to 100 nM
CC(=O)NCC1Cn2nc3c(c2C(=O)N(C)O1)CN(C(=O)Nc1ccc(F)c(Cl)c1)CC3 (stereo not shown) [Compound 162, -(acetamidomethyl)-N-(3-chloro-4-fluoro-phenyl)-2-methyl-1-oxo-5,8,9,11-tetrahydro-4H-pyrido[2,3]pyrazolo[2,4-d][1,2,5]oxadiazepine-10-carboxamide] | 1 to 100 nM
CN1OC(CNS(=O)(=O)C(F)(F)F)Cn2nc3c(c2C1=O)CN(C(=O)Nc1ccc(F)c(Cl)c1)CC3 (stereo not shown) [Compound 164, N-(3-chloro-4-fluorophenyl)-2-methyl-1-oxo-4-(((trifluoromethyl)sulfonamido)methyl)-1,4,5,8,9,11-hexahydropyrido[4′,3′:3,4]pyrazolo[5,1-d][1,2,5]oxadiazepine-10(2H)-carboxamide] | 100 to 500 nM
CN1OC(CNS(C)(=O)=O)Cn2nc3c(c2C1=O)CN(C(=O)Nc1ccc(F)c(Cl)c1)CC3 (stereo not shown) [Compound 165, N-(3-chloro-4-fluorophenyl)-2-methyl-4-(methylsulfonamidomethyl)-1-oxo-1,4,5,8,9,11-hexahydropyrido[4′,3′:3,4]pyrazolo[5,1-d][1,2,5]oxadiazepine-10(2H)-carboxamide] | 1 to 100 nM
COC(=O)NCC1Cn2nc3c(c2C(=O)N(C)O1)CN(C(=O)Nc1ccc(F)c(Cl)c1)CC3 (stereo not shown) [Compound 166, methyl((10-((3-chloro-4-fluorophenyl)carbamoyl)-2-methyl-1-oxo-1,2,4,5,8,9,10,11-octahydropyrido[4′,3′:3,4]pyrazolo[5,1-d][1,2,5]oxadiazepin-4-yl)methyl)carbamate] | 1 to 100 nM
CNC(=O)C1Cn2nc3c(c2C(=O)N(C)O1)CN(C(=O)Nc1ccc(F)c(C#N)c1F)CC3 (stereo not shown) [Compound 195, N10-(3-cyano-2,4-difluorophenyl)-N4,2-dimethyl-1-oxo-1,4,5,8,9,11-hexahydropyrido[4′,3′:3,4]pyrazolo[5,1-d][1,2,5]oxadiazepine-4,10(2H)-dicarboxamide] | 1 to 100 nM
CCC(=O)NCC1Cn2nc3c(c2C(=O)N(C)O1)CN(C(=O)Nc1ccc(F)c(Cl)c1)CC3 (stereo not shown) [Compound 197, N-(3-chloro-4-fluorophenyl)-2-methyl-1-oxo-4-(propionamidomethyl)-1,4,5,8,9,11-hexahydropyrido[4′,3′:3,4]pyrazolo[5,1-d][1,2,5]oxadiazepine-10(2H)-carboxamide] | 1 to 100 nM
CN1OC(CNC(=O)C2CC2)Cn2nc3c(c2C1=O)CN(C(=O)Nc1ccc(F)c(Cl)c1)CC3 (stereo not shown) [Compound 198, N-(3-chloro-4-fluorophenyl)-4-(cyclopropanecarboxamidomethyl)-2-methyl-1-oxo-1,4,5,8,9,11-hexahydropyrido[4′,3′:3,4]pyrazolo[5,1-d][1,2,5]oxadiazepine-10(2H)-carboxamide] | 1 to 100 nM
CN1OC(CNC(=O)CC(F)(F)F)Cn2nc3c(c2C1=O)CN(C(=O)Nc1ccc(F)c(Cl)c1)CC3 (stereo not shown) [Compound 199, N-(3-chloro-4-fluorophenyl)-2-methyl-1-oxo-4-((3,3,3-trifluoropropanamido)methyl)-1,4,5,8,9,11-hexahydropyrido[4′,3′:3,4]pyrazolo[5,1-d][1,2,5]oxadiazepine-10(2H)-carboxamide] | 1 to 100 nM
CC(C)C(=O)NCC1Cn2nc3c(c2C(=O)N(C)O1)CN(C(=O)Nc1ccc(F)c(Cl)c1)CC3 (stereo not shown) [Compound 200, N-(3-chloro-4-fluorophenyl)-4-(isobutyramidomethyl)-2-methyl-1-oxo-1,4,5,8,9,11-hexahydropyrido[4′,3′:3,4]pyrazolo[5,1-d][1,2,5]oxadiazepine-10(2H)-carboxamide] | 1 to 100 nM
CN1OC(CNC(=O)C(C)(C)C)Cn2nc3c(c2C1=O)CN(C(=O)Nc1ccc(F)c(Cl)c1)CC3 (stereo not shown) [Compound 201, N-(3-chloro-4-fluorophenyl)-2-methyl-1-oxo-4-(pivalamidomethyl)-1,4,5,8,9,11-hexahydropyrido[4′,3′:3,4]pyrazolo[5,1-d][1,2,5]oxadiazepine-10(2H)-carboxamide] | 1 to 100 nM
CCOC(=O)NCC1Cn2nc3c(c2C(=O)N(C)O1)CN(C(=O)Nc1ccc(F)c(Cl)c1)CC3 (stereo not shown) [Compound 202, ethyl ((10-((3-chloro-4-fluorophenyl)carbamoyl)-2-methyl-1-oxo-1,2,4,5,8,9,10,11-octahydropyrido[4′,3′:3,4]pyrazolo[5,1-d][1,2,5]oxadiazepin-4-yl)methyl)carbamate] | 1 to 100 nM
CN1OC(CNC(=O)OC2CC2)Cn2nc3c(c2C1=O)CN(C(=O)Nc1ccc(F)c(Cl)c1)CC3 (stereo not shown) [Compound 203, cyclopropyl ((10-((3-chloro-4-fluorophenyl)carbamoyl)-2-methyl-1-oxo-1,2,4,5,8,9,10,11-octahydropyrido[4′,3′:3,4]pyrazolo[5,1-d][1,2,5]oxadiazepin-4-yl)methyl)carbamate] | 1 to 100 nM
CN(C)C(=O)NCC1Cn2nc3c(c2C(=O)N(C)O1)CN(C(=O)Nc1ccc(F)c(Cl)c1)CC3 (stereo not shown) [Compound 204, N-(3-chloro-4-fluorophenyl)-4-((3,3-dimethylureido)methyl)-2-methyl-1-oxo-1,4,5,8,9,11-hexahydropyrido[4′,3′:3,4]pyrazolo[5,1-d][1,2,5]oxadiazepine-10(2H)-carboxamide] | 1 to 100 nM

same assay, conditions: Hepatitis B virus, HepG2.2.15, read-out: DNA EC50

Compound | EC50
CN1OC(CNC(=O)C(F)(F)F)Cn2nc3c(c2C1=O)CN(C(=O)Nc1ccc(F)c(Cl)c1)CC3 (stereo not shown) [Compound 163, N-(3-chloro-4-fluorophenyl)-2-methyl-1-oxo-4-((2,2,2-trifluoroacetamido)methyl)-1,4,5,8,9,11-hexahydropyrido[4′,3′:3,4]pyrazolo[5,1-d][1,2,5]oxadiazepine-10(2H)-carboxamide] | 1 to 100 nM
